Columns and labels:
HDAC1 enzyme = biological target: T1, HDAC1 enzyme (Homo sapiens, UniProt Q13547); test: HDAC1 enzyme inhibitory assay (HDAC-Glo I/II Assay kit); assay type: biochemical; settings: 1 μM test compound; read-out: HDAC1 inhibitory rate (%) (1 μM)
T1 construct: prepared by transducing full length HDAC1 and HDAC6 genes into Sf-9 insect cells; GST; purchased SignalChem; host or cells: Sf-9 insect cells
In short: (§1)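 Luminescent HDAC-Glo I/II read-out after 20 min room-temperature reaction with substrate-developer, following a 60 min room-temperature enzyme–compound preincubation. Enzymes: full-length HDAC1 or HDAC6 from Sf-9 cells, GST-purified; buffer pH 7.5 Tris with NaCl, glutathione, 0.01% Tween-20. No-enzyme wells defined 100% inhibition.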

HDAC6 enzyme = biological target: T2, HDAC6 enzyme (Homo sapiens, UniProt Q9UBN7); test: HDAC6 enzyme inhibitory assay (HDAC-Glo I/II Assay kit); assay type: biochemical; settings: 1 μM test compound; read-out: HDAC6 inhibitory rate (%) (1 μM)
T2 construct: prepared by transducing full length HDAC1 and HDAC6 genes into Sf-9 insect cells; GST; purchased SignalChem; host or cells: Sf-9 insect cells
T2 sequence (Q9UBN7 1-1215): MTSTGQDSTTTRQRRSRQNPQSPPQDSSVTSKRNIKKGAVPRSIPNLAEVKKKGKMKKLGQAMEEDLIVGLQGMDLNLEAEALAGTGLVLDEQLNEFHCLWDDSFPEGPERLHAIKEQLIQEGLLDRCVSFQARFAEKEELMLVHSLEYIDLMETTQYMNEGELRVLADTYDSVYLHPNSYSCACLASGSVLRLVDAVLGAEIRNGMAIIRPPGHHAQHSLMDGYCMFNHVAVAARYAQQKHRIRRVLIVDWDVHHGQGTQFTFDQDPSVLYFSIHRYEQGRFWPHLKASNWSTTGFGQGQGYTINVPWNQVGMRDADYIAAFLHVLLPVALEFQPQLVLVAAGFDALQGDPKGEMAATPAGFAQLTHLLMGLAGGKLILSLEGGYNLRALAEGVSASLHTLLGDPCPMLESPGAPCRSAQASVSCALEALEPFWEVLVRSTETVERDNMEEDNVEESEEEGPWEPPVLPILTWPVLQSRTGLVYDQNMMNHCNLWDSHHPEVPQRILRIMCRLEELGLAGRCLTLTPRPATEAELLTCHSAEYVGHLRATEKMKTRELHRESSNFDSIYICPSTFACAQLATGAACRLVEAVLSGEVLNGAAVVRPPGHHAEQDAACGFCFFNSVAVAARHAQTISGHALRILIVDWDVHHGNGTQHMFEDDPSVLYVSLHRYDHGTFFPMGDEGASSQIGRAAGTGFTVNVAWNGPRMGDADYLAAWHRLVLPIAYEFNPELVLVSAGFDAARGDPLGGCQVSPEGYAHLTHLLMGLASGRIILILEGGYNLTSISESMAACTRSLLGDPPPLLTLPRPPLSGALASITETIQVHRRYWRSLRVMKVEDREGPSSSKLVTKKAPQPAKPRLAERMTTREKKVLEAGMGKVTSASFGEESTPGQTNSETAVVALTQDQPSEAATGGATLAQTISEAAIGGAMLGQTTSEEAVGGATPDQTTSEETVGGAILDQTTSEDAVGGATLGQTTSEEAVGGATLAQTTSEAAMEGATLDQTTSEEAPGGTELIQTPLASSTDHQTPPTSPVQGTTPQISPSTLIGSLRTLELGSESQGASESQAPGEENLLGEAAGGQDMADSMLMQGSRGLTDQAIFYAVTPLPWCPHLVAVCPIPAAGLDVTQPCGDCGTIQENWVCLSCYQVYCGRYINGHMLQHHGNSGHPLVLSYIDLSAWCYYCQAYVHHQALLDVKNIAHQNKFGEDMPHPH
In short: as §1

T1 sequence (Q13547 whole entry): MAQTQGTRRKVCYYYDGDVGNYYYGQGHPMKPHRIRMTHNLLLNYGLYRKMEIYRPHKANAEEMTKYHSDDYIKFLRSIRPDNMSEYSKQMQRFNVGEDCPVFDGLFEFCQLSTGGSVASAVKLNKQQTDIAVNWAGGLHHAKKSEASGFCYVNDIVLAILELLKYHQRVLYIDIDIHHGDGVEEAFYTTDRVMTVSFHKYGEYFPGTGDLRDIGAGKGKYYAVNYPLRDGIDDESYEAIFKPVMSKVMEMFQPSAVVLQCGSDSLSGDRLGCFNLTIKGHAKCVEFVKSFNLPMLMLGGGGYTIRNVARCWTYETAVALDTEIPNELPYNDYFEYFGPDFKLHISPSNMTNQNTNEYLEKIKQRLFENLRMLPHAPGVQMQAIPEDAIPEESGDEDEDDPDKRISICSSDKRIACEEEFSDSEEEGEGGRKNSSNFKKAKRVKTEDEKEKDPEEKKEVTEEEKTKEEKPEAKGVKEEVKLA

Row | inhibition at 1 µM (HDAC1 enzyme) [%] | inhibition at 1 µM (HDAC6 enzyme) [%] | SMILES
1 | 32 | 99 | CC(C)(C(=O)N1CCOC[C@@H]1CNC(=O)c1ccc(-c2noc(C(F)(F)F)n2)s1)c1ccccc1 [Example 263, N-(((3S)-4-(2-methyl-2-phenylpropanoyl)morpholin-3-yl)methyl)-5-(5-(trifluoromethyl)-1,2,4-oxadiazol-3-yl)thiophene-2-carboxamide]
2 | 48 | 99 | Cc1nonc1C(=O)N1CCOC[C@H]1CNC(=O)c1ccc(-c2noc(C(F)(F)F)n2)s1 [Example 264, N-(((3R)-4-((4-methyl-1,2,5-oxadiazol-3-yl)carbonyl)morpholin-3-yl)methyl)-5-(5-(trifluoromethyl)-1,2,4-oxadiazol-3-yl)thiophene-2-carboxamide]
3 | 76 | 99 | O=C(NC[C@@H]1COCCN1C(=O)C(F)(F)c1ccccc1)c1ccc(-c2noc(C(F)(F)F)n2)s1 [Example 265, N-(((3R)-4-(difluoro(phenyl)acetyl)morpholin-3-yl)methyl)-5-(5-(trifluoromethyl)-1,2,4-oxadiazol-3-yl)thiophene-2-carboxamide]
4 | 30 | 98 | O=C(NC[C@@H]1COCCN1C(=O)C1CCCCC1)c1ccc(-c2noc(C(F)(F)F)n2)s1 [Example 266, N-(((3R)-4-(cyclohexylcarbonyl)morpholin-3-yl)methyl)-5-(5-(trifluoromethyl)-1,2,4-oxadiazol-3-yl)thiophene-2-carboxamide]
5 | 15 | 96 | COC(=O)c1cccc(C(=O)N2CCOC[C@@H]2CNC(=O)c2ccc(-c3noc(C(F)(F)F)n3)cc2)c1 [Example 268, methyl 3-(((3S)-3-(((4-(5-(trifluoromethyl)-1,2,4-oxadiazol-3-yl)benzoyl)amino)methyl)morpholin-4-yl)carbonyl)benzoate]
6 | 7 | 89 | O=C(O)c1cccc(C(=O)N2CCOC[C@@H]2CNC(=O)c2ccc(-c3noc(C(F)(F)F)n3)cc2)c1 [Example 269, 3-(((3S)-3-(((4-(5-(trifluoromethyl)-1,2,4-oxadiazol-3-yl)benzoyl)amino)methyl)morpholin-4-yl)carbonyl)benzoic acid]
7 | -1 | 59 | CN1CCC[C@H]1C(=O)N1CCOC[C@@H]1CNC(=O)c1ccc(-c2noc(C(F)(F)F)n2)cc1 [Example 270, N-(((3S)-4-(1-methyl-L-prolyl)morpholin-3-yl)methyl)-4-(5-(trifluoromethyl)-1,2,4-oxadiazol-3-yl)benzamide]
8 | 7 | 94 | O=C(NCCO)c1cccc(C(=O)N2CCOC[C@@H]2CNC(=O)c2ccc(-c3noc(C(F)(F)F)n3)cc2)c1 [Example 271, N-(2-hydroxyethyl)-3-(((3S)-3-(((4-(5-(trifluoromethyl)-1,2,4-oxadiazol-3-yl)benzoyl)amino)methyl)morpholin-4-yl)carbonyl)benzamide]
9 | 5 | 99 | COC[C@H]1CCCN1C(=O)N1CCOC[C@@H]1CNC(=O)c1ccc(-c2noc(C(F)(F)F)n2)cc1 [Example 272, N-(((3S)-4-(((2R)-2-(methoxymethyl)pyrrolidin-1-yl)carbonyl)morpholin-3-yl)methyl)-4-(5-(trifluoromethyl)-1,2,4-oxadiazol-3-yl)benzamide]
10 | 3 | 87 | COC[C@@H]1CCCN1C(=O)N1CCOC[C@@H]1CNC(=O)c1ccc(-c2noc(C(F)(F)F)n2)cc1 [Example 273, N-(((3S)-4-(((2S)-2-(methoxymethyl)pyrrolidin-1-yl)carbonyl)morpholin-3-yl)methyl)-4-(5-(trifluoromethyl)-1,2,4-oxadiazol-3-yl)benzamide]
11 | 3 | 94 | O=C(NC[C@H]1COCCN1C(=O)N1CC[C@H](O)C1)c1ccc(-c2noc(C(F)(F)F)n2)cc1 [Example 274, N-(((3S)-4-(((3S)-3-hydroxypyrrolidin-1-yl)carbonyl)morpholin-3-yl)methyl)-4-(5-(trifluoromethyl)-1,2,4-oxadiazol-3-yl)benzamide]
12 | 5 | 85 | O=C(NC[C@H]1COCCN1C(=O)N1CC[C@@H](O)C1)c1ccc(-c2noc(C(F)(F)F)n2)cc1 [Example 275, N-(((3S)-4-(((3R)-3-hydroxypyrrolidin-1-yl)carbonyl)morpholin-3-yl)methyl)-4-(5-(trifluoromethyl)-1,2,4-oxadiazol-3-yl)benzamide]
13 | 9 | 89 | O=C(NC[C@H]1COCCN1C(=O)N1CCCC(CO)C1)c1ccc(-c2noc(C(F)(F)F)n2)cc1 (stereo partly drawn) [Example 276, N-(((3S)-4-((3-(hydroxymethyl)piperidin-1-yl)carbonyl)morpholin-3-yl)methyl)-4-(5-(trifluoromethyl)-1,2,4-oxadiazol-3-yl)benzamide]
14 | 8 | 101 | O=C(NC[C@H]1COCCN1C(=O)N1CCC(F)(F)CC1)c1ccc(-c2noc(C(F)(F)F)n2)cc1 [Example 277, N-(((3S)-4-((4,4-difluoropiperidin-1-yl)carbonyl)morpholin-3-yl)methyl)-4-(5-(trifluoromethyl)-1,2,4-oxadiazol-3-yl)benzamide]
15 | 6 | 90 | O=C(NC[C@H]1COCCN1C(=O)N1CCC(CO)CC1)c1ccc(-c2noc(C(F)(F)F)n2)cc1 [Example 278, N-(((3S)-4-((4-(hydroxymethyl)piperidin-1-yl)carbonyl)morpholin-3-yl)methyl)-4-(5-(trifluoromethyl)-1,2,4-oxadiazol-3-yl)benzamide]
16 | 10 | 90 | O=C(NC[C@H]1COCCN1C(=O)N1CCC(CCO)CC1)c1ccc(-c2noc(C(F)(F)F)n2)cc1 [Example 279, N-(((3S)-4-((4-(2-hydroxyethyl)piperidin-1-yl)carbonyl)morpholin-3-yl)methyl)-4-(5-(trifluoromethyl)-1,2,4-oxadiazol-3-yl)benzamide]
17 | 7 | 93 | O=C(NC[C@H]1COCCN1C(=O)N1CCCC2(COC2)C1)c1ccc(-c2noc(C(F)(F)F)n2)cc1 [Example 281, N-(((3S)-4-(2-oxa-6-azaspiro[3.5]non-6-ylcarbonyl)morpholin-3-yl)methyl)-4-(5-(trifluoromethyl)-1,2,4-oxadiazol-3-yl)benzamide]
18 | 5 | 83 | O=C(NC[C@H]1COCCN1C(=O)N1CCC2(CC1)COC2)c1ccc(-c2noc(C(F)(F)F)n2)cc1 [Example 282, N-(((3S)-4-(2-oxa-7-azaspiro[3.5]non-7-ylcarbonyl)morpholin-3-yl)methyl)-4-(5-(trifluoromethyl)-1,2,4-oxadiazol-3-yl)benzamide]
19 | -1 | 73 | NC(=O)[C@@H]1CCCN1C(=O)N1CCOC[C@@H]1CNC(=O)c1ccc(-c2noc(C(F)(F)F)n2)cc1 [Example 283, 1-(((3S)-3-(((4-(5-(trifluoromethyl)-1,2,4-oxadiazol-3-yl)benzoyl)amino)methyl)morpholin-4-yl)carbonyl)-L-prolinamide]
20 | 1 | 95 | N#C[C@H]1CCCN1C(=O)N1CCOC[C@@H]1CNC(=O)c1ccc(-c2noc(C(F)(F)F)n2)cc1 [Example 284, N-(((3S)-4-(((2R)-2-cyanopyrrolidin-1-yl)carbonyl)morpholin-3-yl)methyl)-4-(5-(trifluoromethyl)-1,2,4-oxadiazol-3-yl)benzamide]
21 | 3 | 83 | N#C[C@@H]1CCCN1C(=O)N1CCOC[C@@H]1CNC(=O)c1ccc(-c2noc(C(F)(F)F)n2)cc1 [Example 285, N-(((3S)-4-(((2S)-2-cyanopyrrolidin-1-yl)carbonyl)morpholin-3-yl)methyl)-4-(5-(trifluoromethyl)-1,2,4-oxadiazol-3-yl)benzamide]

Reference: patent US10081624B2, “Heterocyclic compound” (Takeda Pharmaceutical Company Limited, priority 2014, dated 2018)
